According to the supplement of paper PMC10331698:
± gives the standard deviation of the averaged measurements.

Legend:
Assay in all cases: level (log10 ratio to DMSO vehicle control); higher = higher biomarker level / cell amount than vehicle control
Conditions in all cases: in DMSO
[1] = compound: Cc1ccc(S(=O)(=O)OCC(F)(F)C(F)(F)C(F)(F)C(F)(F)C(F)(F)C(F)F)cc1 [1H,1H,7H-Perfluoroheptyl 4-methylbenzenesulfonate]
Protocol: (§1)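 BioMAP Diversity Plus panel of 12 human primary cell co-culture systems (3C, 4H, LPS, SAg, BT, BF4T, BE3C, CASM3C, HDF3CGF, KF3CT, MyoF, Mphg). Compounds were added 1 h before stimulation and left for 24 h (MyoF 48 h; BT 72 h for soluble read-outs or 6 d for IgG). Biomarkers were read by ELISA, cytotoxicity by SRB, PBMC viability and proliferation by Alamar Blue. Each well value was divided by the mean of 8 DMSO control wells on the same plate and log10 transformed; duplicate blinded samples were tested at 4 concentrations.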

[2] = compound: O=P(O)(O)CCC(F)(F)C(F)(F)C(F)(F)C(F)(F)C(F)(F)C(F)(F)F [2-(Perfluorohexyl)ethylphosphonic acid]
Protocol: as §1

[3] = compound: C=CC(=O)OCC(F)(F)C(F)(F)C(F)(F)C(F)(F)C(F)(F)C(F)(F)C(F)(F)C(F)F [1H,1H,9H-Perfluorononyl acrylate]
Protocol: as §1

Perfluoropinacol = compound: OC(C(F)(F)F)(C(F)(F)F)C(O)(C(F)(F)F)C(F)(F)F [Perfluoropinacol]
Protocol: as §1

[4] = compound: OCC(F)(F)C(F)(F)C(F)(F)C(F)(F)C(F)(F)C(F)(F)C(F)(F)C(F)(F)C(F)(F)C(F)(F)C(F)(F)F [11:1 Fluorotelomer alcohol]
Protocol: as §1

[5] = compound: OCC(F)(F)C(F)(F)C(F)(F)C(F)(F)C(F)(F)C(F)(F)C(F)(F)C(F)(F)CO [1H,1H,10H,10H-Perfluorodecane-1,10-diol]
Protocol: as §1

Tetrafluorosuccinic acid = compound: O=C(O)C(F)(F)C(F)(F)C(=O)O [Tetrafluorosuccinic acid]
Protocol: as §1

| Test System | level (log10) ([1]; 6700 nM) | level (log10) ([1]; 20000 nM) | level (log10) ([1]; 60000 nM) | level (log10) ([2]; 6700 nM) | level (log10) ([2]; 20000 nM) | level (log10) ([2]; 60000 nM) | level (log10) ([3]; 6700 nM) | level (log10) ([3]; 20000 nM) | level (log10) ([3]; 60000 nM) | level (log10) (Perfluoropinacol; 6700 nM) | level (log10) (Perfluoropinacol; 20000 nM) | level (log10) ([4]; 1100 nM) | level (log10) ([4]; 3300 nM) | level (log10) ([4]; 10000 nM) | level (log10) ([5]; 6700 nM) | level (log10) ([5]; 20000 nM) | level (log10) ([5]; 60000 nM) | level (log10) (Tetrafluorosuccinic acid; 6700 nM) | level (log10) (Tetrafluorosuccinic acid; 20000 nM) | level (log10) (Tetrafluorosuccinic acid; 60000 nM) |
| --- | --- | --- | --- | --- | --- | --- | --- | --- | --- | --- | --- | --- | --- | --- | --- | --- | --- | --- | --- | --- |
| SAg:CXCL8/IL-8 | 0.005 ± 0.0014 | 0.0025 ± 0.0064 | 0.0265 ± 0.033 | -0.003 ± 0.038 | 0.015 ± 0.023 | 0.143 ± 0.0021 | -0.068 ± 0.0028 | -0.0845 ± 0.026 | -0.0975 ± 0.14 | 0.0725 ± 0.029 | -0.139 ± 0.041 | 0.0365 ± 0.042 | -0.0005 ± 0.0035 | -0.121 ± 0.28 | -0.0125 ± 0.037 | -0.01 ± 0.018 | -0.051 | -0.0345 ± 0.039 | -0.044 ± 0.021 | -0.006 ± 0.064 |
| LPS:CD40 | -0.0185 ± 0.066 | 0.0215 ± 0.054 | 0.129 ± 0.061 | 0.002 ± 0.062 | -0.012 ± 0.018 | 0.0205 ± 0.028 | -0.001 ± 0.05 | -0.0785 ± 0.029 | -0.181 ± 0.064 | -0.0285 ± 0.073 | -0.16 ± 0.03 | 0.0305 ± 0.028 | 0.0205 ± 0.0035 | -0.0275 ± 0.00071 | -0.0225 ± 0.015 | -0.0585 ± 0.037 | -0.095 | -0.016 ± 0.0028 | -0.0185 ± 0.0092 | -0.007 ± 0.014 |
| SAg:PBMC Cytotoxicity | 0.0275 ± 0.0092 | 0.0285 ± 0.0092 | 0.017 ± 0.02 | -0.019 ± 0.023 | 0.012 ± 0.037 | -0.0165 ± 0.026 | -0.015 ± 0.0057 | -0.0795 ± 0.0092 | -0.194 ± 0.1 | 0.046 ± 0.033 | 0.0855 ± 0.0021 | -0.233 ± 0.016 | -0.266 ± 0.02 | -0.268 ± 0.076 | 0.009 | 0.0155 ± 0.036 | -0.155 | -0.002 ± 0.048 | 0.0115 ± 0.013 | 0.039 ± 0.013 |
| SAg:CD69 | -0.01 ± 0.0099 | 0.0205 ± 0.016 | 0.0105 ± 0.00071 | -0.004 ± 0.025 | -0.008 ± 0.02 | 0.009 ± 0.03 | -0.0475 ± 0.028 | -0.0395 ± 0.03 | -0.099 ± 0.018 | -0.039 ± 0.017 | -0.19 ± 0.033 | -0.0355 ± 0.021 | -0.0425 ± 0.029 | -0.038 ± 0.023 | -0.042 ± 0.044 | -0.0685 ± 0.066 | -0.119 | 0.012 ± 0.061 | 0.0055 ± 0.025 | 0.023 ± 0.02 |
| BF4T:IL-1alpha | -0.008 ± 0.0085 | 0.022 ± 0.018 | 0.04 ± 0.034 | 0.0005 ± 0.015 | -0.014 ± 0.013 | 0.002 ± 0.042 | 0.007 ± 0.0071 | 0.017 ± 0.014 | 0.005 ± 0.013 | 0.0025 ± 0.012 | -0.025 ± 0.0057 | -0.016 ± 0.0014 | -0.0125 ± 0.013 | 0.0025 ± 0.0021 | 0.0005 ± 0.0021 | -0.025 ± 0.023 | -0.035 | 0.023 ± 0.02 | 0.0145 ± 0.025 | 0.0335 ± 0.016 |
| BF4T:SRB | -0.003 ± 0.0042 | -0.008 ± 0.0028 | -0.015 ± 0.0099 | -0.007 ± 0.0042 | -0.011 ± 0.0014 | -0.0055 ± 0.016 | -0.0045 ± 0.005 | -0.001 ± 0.016 | 0.0065 ± 0.021 | -0.0135 ± 0.0021 | -0.031 ± 0.0014 | -0.003 ± 0.0014 | -0.0075 ± 0.0064 | 0.001 ± 0.014 | -0.005 ± 0.0028 | -0.0315 ± 0.0035 | -0.097 | -0.0035 ± 0.0021 | -0.005 ± 0.0028 | -0.0025 ± 0.00071 |
| LPS:SRB | 0.006 ± 0.0099 | -0.0075 ± 0.00071 | -0.031 ± 0.0042 | -0.003 ± 0.0057 | -0.006 ± 0.0028 | -0.023 ± 0.021 | -0.006 ± 0.0028 | 0.003 ± 0.0042 | -0.0055 ± 0.011 | -0.0265 ± 0.0021 | -0.151 ± 0.0064 | -0.029 ± 0.0099 | -0.0455 ± 0.0021 | -0.036 ± 0.0014 | 0.0005 ± 0.016 | -0.012 ± 0.017 | -0.042 | -0.0055 ± 0.013 | -0.008 ± 0.0014 | -0.017 ± 0.0042 |
| LPS:CD141/Thrombomodulin | -0.0115 ± 0.016 | -0.011 ± 0.0085 | -0.007 ± 0.023 | -0.004 ± 0.11 | -0.0055 ± 0.11 | 0.0315 ± 0.032 | -0.028 ± 0.0042 | -0.0695 ± 0.035 | -0.108 ± 0.021 | -0.106 ± 0.028 | -0.118 ± 0.005 | -0.0285 ± 0.015 | -0.0185 ± 0.012 | -0.0035 ± 0.013 | -0.02 ± 0.03 | 0.007 ± 0.044 | -0.047 | 0.019 ± 0.1 | 0.043 ± 0.057 | 0.04 ± 0.047 |
| SAg:CD38 | 0.005 ± 0.0057 | -0.0075 ± 0.012 | -0.0075 ± 0.012 | 0.018 | 0.0025 ± 0.016 | -0.0055 ± 0.011 | -0.0395 ± 0.035 | -0.0245 ± 0.0035 | -0.031 ± 0.011 | -0.012 ± 0.021 | -0.113 ± 0.023 | -0.0115 ± 0.084 | -0.014 ± 0.073 | 0.0035 ± 0.042 | -0.0275 ± 0.00071 | -0.04 ± 0.0099 | -0.027 | -0.003 ± 0.027 | 0.001 ± 0.0028 | 0.006 ± 0.027 |
| LPS:CXCL8/IL-8 | 0.0265 ± 0.015 | 0.008 ± 0.014 | 0.0195 ± 0.0021 | -0.023 ± 0.024 | -0.0235 ± 0.0021 | 0.0375 ± 0.054 | -0.001 ± 0.047 | 0.0095 ± 0.023 | -0.023 ± 0.028 | -0.003 ± 0.0028 | -0.0315 ± 0.0021 | -0.007 ± 0.011 | -0.013 ± 0.0014 | -0.0305 ± 0.039 | -0.0065 ± 0.023 | 0.006 ± 0.0042 | 0.051 | -0.0065 ± 0.00071 | -0.003 ± 0.016 | 0.009 ± 0.02 |
| BE3C:CD54/ICAM-1 | 0.014 ± 0.0057 | -0.023 ± 0.02 | -0.012 ± 0.0014 | -0.01 ± 0.0028 | -0.02 ± 0.021 | -0.0085 ± 0.03 | -0.01 ± 0.0042 | -0.0095 ± 0.013 | -0.0165 ± 0.011 | -0.003 ± 0.0085 | -0.0095 ± 0.0035 | -0.0245 ± 0.00071 | -0.054 ± 0.0099 | -0.025 ± 0.0028 | 0.004 ± 0.0085 | -0.0305 ± 0.0064 | -0.232 | 0.0015 ± 0.025 | 0.0065 ± 0.00071 | 0.0115 ± 0.00071 |
| 3C:HLA-DR | 0.0215 ± 0.016 | 0.0165 ± 0.0021 | 0.0085 ± 0.022 | -0.0055 ± 0.012 | -0.0135 ± 0.00071 | -0.0085 ± 0.044 | -0.002 ± 0.0085 | 0.0155 ± 0.0021 | -0.0055 ± 0.005 | -0.0405 ± 0.0035 | -0.132 ± 0.028 | -0.019 ± 0.0042 | -0.034 ± 0.011 | -0.04 ± 0.016 | -0.039 ± 0.02 | -0.031 ± 0.021 | -0.131 | 0.0005 ± 0.025 | -0.0075 ± 0.0021 | -0.0045 ± 0.032 |
| LPS:IL-1alpha | -0.018 ± 0.017 | -0.006 ± 0.0042 | -0.039 ± 0.0085 | 0.0055 ± 0.0092 | -0.026 ± 0.014 | -0.0195 ± 0.087 | 0.04 ± 0.028 | 0.0435 ± 0.03 | 0.0325 ± 0.053 | 0.0305 ± 0.011 | 0.041 ± 0.0014 | -0.0655 ± 0.0092 | -0.14 ± 0.0035 | -0.144 ± 0.012 | 0.0225 ± 0.033 | 0.027 ± 0.016 | 0.066 | -0.0215 ± 0.021 | -0.0175 ± 0.0092 | -0.0015 ± 0.013 |
